Test [1] concerns maternal Chd2 locus. Kind of test: Donor-free interchromosomal homologous recombination (ICHR) in IVF-derived Chd2^R1684H/+ embryos. The format is cell-based, mouse. The procedure: tracrRNA, crRNAs, and ssODNs were synthesized by Integrated DNA Technologies (TABLE 1). All injection mixtures were prepared in a final volume of 50 μL according to the following methodology: Using RNase-free water, reagents, and consumables, crRNA (final concentration 0.61 μM), tracrRNA (final concentration 0.61 μM), and ultrapure Tris-HCl, pH 7.39 (final concentration 10 mM, ThermoFisher) were mixed and incubated at 95° C. for 5 minutes. The mixtures were cooled to room temperature for 10 minutes on the benchtop, and then, EnGen Cas9-NLS S. pyogenes (New England Biolabs) was added to a final concentration of 30 ng/μL. The mixtures were incubated at 37° C. for 15 minutes before adding any remaining components: ssODN (final concentration 3 ng/μL or 30 ng/μL), RAD51 (Creative Biomart, final concentration 10 ng/μL). Injection mixtures were stored on ice and briefly heated to 37° C. prior to injection. For experiments utilizing RS-1, embryos were cultured in KSOM-AA (EMD Millipore MR-121-D) with […] RS-1 (Sigma) dissolved in DMSO or DMSO (Sigma, 1:1000) for 24 hours, washed, and cultured in EmbryoMax FHM HEPES Buffered Medium (Sigma) until collection for genotyping.
For experiments using wildtype recombinant proteins, the following proteins were used: RAD51 (Creative Biomart RAD51-134H), USP1/WDR48 (Creative Biomart USP1&WDR48-1067H), BCCIP (Origene TP303061), XRCC1 (TP304952), XRCC4 (Origene TP312684), DMC1 (Origene TP318311). For experiments using mutant RAD51, custom RAD51 preparations were produced by Creative Biomart according to their standard protocol for producing the wildtype RAD51 used in all other experiments. Mutant DNA sequences used for cloning are described in TABLE 2. All RAD51 mutants were modeled in human RAD51 transcript variant 4 (NCBI accession NM_001164269), as this is the transcript variant of the wildtype RAD51-134H protein used in all other experiments.
In vitro fertilization was performed using FERTIUP® Mouse Preincubation Medium and CARD MEDIA (Kyudo Company) according to the manufacturer's protocol. Non-virgin Chd2^R1684H/R1684H males that were >8 weeks old were used as sperm donors. Following IVF, embryos were cultured for 8 hours and then injected using the PNI protocol described below.
For all experiments except those described in FIG. 6, the male pronucleus was injected. Injections performed for the CPI portion of FIG. 6 were targeted to the cytoplasm. All microinjections were performed using a Narishige Micromanipulator, Nikon Eclipse TE2000-S microscope, and Eppendorf 5242 microinjector. Individual zygotes were injected with 1-2 pL of injection mixture using an “automatic” injection mode set according to needle size and adjusted for clear increase in pronuclear volume. Following injections, cells were cultured in KSOM-AA until collection for genotyping. For experiments giving rise to F0 animals, embryos were surgically implanted into pseudopregnant CD-1 females (Charles River Laboratories, Strain Code 022) 24-hours post-injection and allowed to develop normally until natural birth.
Embryos were collected at morula-to-blastocyst stage in 4 μL nuclease-free water. After collection, 4 μL of 2× embryo digestion buffer was added to each sample (final concentrations: 125 μg/mL proteinase K, 100 mM Tris-HCl pH 8.0, 100 mM KCl, 0.02% gelatin, 0.45% Tween-20, 60 μg/mL yeast tRNA) and embryos were lysed for 1 hour at 56° C. Proteinase K was inactivated via incubation at 95° C. for 10 minutes and DNA was stored at −20° C. until use.
Chd2^R1684H genotyping was performed via a two-step, nested approach. Except for experiments described in FIGS. 3A-3G, all 8 μL of embryo DNA were used as input for the initial, long round of PCR. Genotyping of mouse pups and adult animals was performed using 2 μL of purified tail DNA. For all embryo genotyping, reactions mixtures were set up in a UV-sterilized laminar flow hood using sterile reagents and filter tips to avoid contamination. […]

For test [2], the target named is T1, Cas9 (Streptococcus pyogenes serotype M1, UniProt Q99ZW2).
T1 construct: NLS (nuclear localization signal); purchased New England Biolabs
In words: In vitro Cas9 digestion assay. As to conditions: 10 ng/μL protein co-incubated, PCR amplimer of the Chd2^R1684H locus, 37° C. 1 hour. The format is biochemical, S. pyogenes. The method, then:
Wildtype or Chd2^R1684H/R1684H genomic DNA was used as input for PCR using the conditions described above and the primers specified in FIGS. 10A-10D and FIG. 12. After confirmation of a single band via gel electrophoresis, the PCR reactions were purified using the DNA Clean & Concentrator kit (Zymo) according to the manufacturer's instructions. crRNA and tracrRNA were diluted 1 μM in nuclease-free Duplex Buffer (IDT) and incubated at 95° C. for 5 minutes before being allowed to cool to room temperature on the bench. Digestion mixtures were made in separate tubes by combining nuclease-free water, 10× Cas9 Nuclease Reaction Buffer (final concentration 1×, New England Biolabs), 1 μL of the cooled crRNA/tracrRNA duplex, and, if necessary, 1 μL of EnGen Cas9 NLS, S. pyogenes (New England Biolabs). These mixtures were heated to 37° C. for 10 minutes before adding 250 ng PCR product and, if necessary, RAD51 G151D (10 ng/μL final concentration, custom-produced by Creative Biomart) or BCCIP (10 ng/μL final concentration, Origene TP303061). Digestion was performed at 37° C. for 1 hour, Cas9 was denatured at 95° C., 6× Purple Gel Loading Dye (New England Biolabs) was added to a final concentration of 1×, and the samples were allowed to passively cool to room temperature. […]

[3] abbreviates: co-injected with Cas9/crRNA/tracrRNA, no donor.
Where [4] appears, read: compared to embryos injected with wildtype RAD51.

T1 sequence (Q99ZW2 whole entry): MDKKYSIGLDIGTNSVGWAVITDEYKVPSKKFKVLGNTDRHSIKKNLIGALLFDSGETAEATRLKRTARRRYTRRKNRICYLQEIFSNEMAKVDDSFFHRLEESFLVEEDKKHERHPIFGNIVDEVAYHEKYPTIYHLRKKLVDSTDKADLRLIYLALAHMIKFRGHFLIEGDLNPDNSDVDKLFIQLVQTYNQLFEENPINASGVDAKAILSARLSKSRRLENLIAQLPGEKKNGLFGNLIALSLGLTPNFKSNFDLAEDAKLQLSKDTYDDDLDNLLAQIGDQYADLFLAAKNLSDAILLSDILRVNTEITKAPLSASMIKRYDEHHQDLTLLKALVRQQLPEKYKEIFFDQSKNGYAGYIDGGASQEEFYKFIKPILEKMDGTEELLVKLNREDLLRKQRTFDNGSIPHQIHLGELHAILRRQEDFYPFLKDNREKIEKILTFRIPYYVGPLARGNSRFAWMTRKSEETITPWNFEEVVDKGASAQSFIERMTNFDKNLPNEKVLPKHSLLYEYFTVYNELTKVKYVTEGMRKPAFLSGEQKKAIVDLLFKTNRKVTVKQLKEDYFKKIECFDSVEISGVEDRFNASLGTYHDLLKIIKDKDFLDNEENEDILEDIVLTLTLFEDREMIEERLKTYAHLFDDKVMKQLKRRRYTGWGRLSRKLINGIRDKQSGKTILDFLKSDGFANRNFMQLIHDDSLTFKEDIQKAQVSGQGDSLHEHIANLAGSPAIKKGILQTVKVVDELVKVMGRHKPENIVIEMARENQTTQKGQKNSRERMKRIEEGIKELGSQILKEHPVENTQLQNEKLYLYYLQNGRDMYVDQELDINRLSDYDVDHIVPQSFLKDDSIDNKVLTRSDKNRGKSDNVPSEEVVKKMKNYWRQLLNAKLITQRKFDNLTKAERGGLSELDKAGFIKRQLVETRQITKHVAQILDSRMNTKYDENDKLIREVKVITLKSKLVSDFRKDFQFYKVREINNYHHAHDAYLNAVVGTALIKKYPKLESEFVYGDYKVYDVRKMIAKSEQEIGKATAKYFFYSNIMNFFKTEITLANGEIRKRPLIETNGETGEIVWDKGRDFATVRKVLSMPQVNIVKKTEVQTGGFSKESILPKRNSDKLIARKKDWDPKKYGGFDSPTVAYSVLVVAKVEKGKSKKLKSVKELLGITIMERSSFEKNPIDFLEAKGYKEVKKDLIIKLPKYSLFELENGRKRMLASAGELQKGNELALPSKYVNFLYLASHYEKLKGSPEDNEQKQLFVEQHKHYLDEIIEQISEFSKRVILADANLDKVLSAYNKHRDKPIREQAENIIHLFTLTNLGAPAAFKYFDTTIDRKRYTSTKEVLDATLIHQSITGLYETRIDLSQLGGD

Take “BCCIP: recombinant BRCA2-interacting protein BCCIP (Origene TP303061)”: in test [1], the “efficiency of ICHR stimulation” value is listed as roughly 100%, the “embryos with mosaic ICHR that were mosaic with an indel” value was 1/14 and the “indel-to-ICHR ratio (level)” value is “near zero”. Further, in test [1] (setting [3]), the “ICHR rate compared with baseline (Cas9-only embryos)” value is recorded as “significantly stronger effect on ICHR rates than USP1/WDR48” and the “edited embryos showing ICHR” value turned out to be 95%. Besides, in test [1] (compared to control embryos), the indel-to-ICHR ratio entry is “drastic decrease” and the overall indel rate entry is recorded as “drastic decrease”. In addition, in test [1] (setting [4]), the indel-to-ICHR ratio entry is listed as “significant decreases” and the overall indel rate result is given as “significant decreases”. Also, the “effect on mosaicism in embryos exhibiting ICHR” value in test [1] (compared to enhancer-free embryos) was “strong effect on mosaicism”. The “direct inhibition of Cas9 nuclease activity” value in test [2] was “not due to direct inhibition of Cas9 activity”.
Turning to “G151D: recombinant RAD51 gain-of-function mutant with increased strand exchange activity, SEQ ID NO: 8”, the “direct inhibition of Cas9 nuclease activity” value in test [2] is “did not observe any direct inhibition of Cas9 activity”.
